Results from patent publication US5158947A, “Condensed heterocyclic compounds and psychopharmaceutical composition containing same” (Suntory Limited, priority 1990, dated 1992).

What was measured:
[1] = system: locomotor hyperactivity induced by amfoneric acid; experiment: Inhibitory activity against locomotor hyperactivity induced by amfoneric acid; type: in vivo, ddy male mouse; settings: Mus musculus, ip, 100 min, amfoneric acid 2.5 mg/kg s.c., total count over 100 minutes, read-out: Inhibition Rate; for inhibition in vivo at 30 mg/kg: 30 mg/kg intraperitoneal; for inhibition in vivo at 10 mg/kg: 10 mg/kg intraperitoneal, * 0.05 > P > 0.01, ** 0.01 > P > 0.001
Method: The inhibitory activity against locomotor hyperactivity induced by amfoneric acid of the present compounds were determined according to a method described in the "Journal of Pharmacology & Experimental Therapeuties," Vol. 239, 124-131 (1986) by R. T. Matthews et al.
That is, to a ddy male mouse having a body weight of about 25g, were simultaneously administered amfoneric acid (2.5 mg/kg, subcutaneous administration) and the present compound (intraperitoneal administration),and the amount of movement was determined using an apparatus for determining the amount of movement of a mouse. The amount of movement was determined over 100 minutes, and the test of significance thereof was effected for the total count number for 100 minutes by a Manwhitnee test. The value was indicated as the inhibition rate based, as a control, upon the group to which 2.5 mg/kg of amfoneric acid was subcutaneously administered.

[2] = target: T1, σ-receptor (Rattus norvegicus, UniProt Q9R0C9); experiment: Affinity to σ-receptor ([3H]3PPP binding, rat cerebra without cerebellum); design: species or system Wistar male rats; settings: 3 nM [3H]3PPP, 25° C., 90 minutes; non-specific: 1 μM haloperidol; read-out: Affinity to δ-Receptor IC50
T1 construct: all of the cerebra, other than the cerebellum, of Wistar male rats; from tissue; host or cells: rat brain (cerebra without cerebellum), crude washed membranes
T1 sequence (Q9R0C9 whole entry): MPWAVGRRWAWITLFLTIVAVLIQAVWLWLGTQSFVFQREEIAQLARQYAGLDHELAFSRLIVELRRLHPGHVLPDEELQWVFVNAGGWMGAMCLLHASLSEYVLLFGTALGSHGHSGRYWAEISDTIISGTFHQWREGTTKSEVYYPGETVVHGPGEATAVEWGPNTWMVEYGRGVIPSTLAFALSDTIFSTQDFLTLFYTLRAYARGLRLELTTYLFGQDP
Method: The affinities of the present compounds to the […] were determined according to a method described in the "Molecular Pharmacology," Vol. 32, 772-784 (1987).
That is, 50 mM of a Tris-HCl (pH=7.7) buffer solution was added to all of the cerebra, other than the cerebellum, of Wistar male rats, followed by homogenizing for […] in a Polytson® and then centrifugally separating same at 35000 G for 10 minutes. To the resultant precipitate was added the same buffer solution as used above, and the homogenizing and the centrafugalization were repeated. This procedure was repeated once more, and to the final precipitate was added a 50 mM Tris -HCl (pH=8.0) buffer solution and the receptor having a binding capability. In the binding experiments, 3nM [^3 H] propyl-3-(3-hydroxyphenyl) piperidine (i.e., [^3 H]3PPP) was used, and as a non-specific ligand, 1 μM haloperidol was used. After incubation at 25° C. for 90 minutes, the bound ligand was recovered by filtration and the determination was carried out. The filter used was a Whatmen GF/B filter treated with 0.5% polyethylene imine.

[3] = system: catalepsy; experiment: Catalepsy; type: in vivo, ddy male mice; settings: scored after 30, 60, 90, and 120 minutes
Method: To ddy male mice having a body weight of about 25 g was intraperitoneally administered the present compound and the catalepsy was determined after 30, 60, 90, and 120 minutes therefrom. The score of the catalepsy was as follows.
The forelegs of the mouse were placed on an aupper edge of a 5.5 cm height box and the time until the more fulled its forelegs down from the box or the mouse jumped up onto the top of the box was measured and the score was determined based upon the following standard.

OC(CCCN1CCN(c2ncc(F)cn2)CC1)c1ccc(F)cc1 (centres unmarked) [BMY14802, reference compound]
inhibition in vivo at 30 mg/kg ([1]; * 0.05 > P > 0.01): 51%

O=C1c2ccccc2OCCN1CCCCN1CCC(c2ccccc2)CC1 [Example 1, 4-(4-(4-phenyl)-1-piperidinyl)butyl-2,3,4,5-tetrahydro-1,4-benzoxazepin-5-one]
IC50 [2]: 14.2 nM

O=C1c2ccccc2OCCN1CCCCN1CCC(c2ccc(Cl)cc2)CC1 [Example 2, 4-(4-(4-(4-chlorophenyl)-1-piperidinyl)butyl)-2,3,4,5-tetrahydro-1,4-benzoxazepin-5-one]
IC50 [2]: 11.7 nM

O=C1COc2ccccc2CN1CCCCN1CCC(c2ccccc2)CC1 [Example 4]
IC50 [2]: 9.22 nM

O=C1COc2ccccc2CN1CCCCN1CCC(c2ccc(Cl)cc2)CC1 [Example 5]
IC50 [2]: 18.7 nM

O=C1COc2ccccc2C(=O)N1CCCCN1CCC(c2ccccc2)CC1 [Example 8, 4-(4-(4-phenyl)-1-piperidinyl)butyl-2,3,4,5-tetrahydro-1,4-benzoxazepine-3,5-dione]
IC50 [2]: 6.61 nM
inhibition in vivo at 30 mg/kg ([1]; * 0.05 > P > 0.01): 73%
Catalepsy ([3]; 30 mg/kg intraperitoneal): - (less than 1)

O=C1COc2ccccc2C(=O)N1CCCCN1CCC(c2ccc(Cl)cc2)CC1 [Example 9, 4-(4-(4-(4-chlorophenyl)-1-piperidinyl)butyl)-2,3,4,5-tetrahydro-1,4-benzoxazepine-3,5-dione]
IC50 [2]: 4.73 nM

O=C1COc2ccccc2C(=O)N1CCCCN1CC=C(c2ccccc2)CC1 [Example 12, 4-(4-(4-phenyl-1,2,3,6-tetrahydro)-1-pyridyl)butyl-2,3,4,5-tetrahydro-1,4-benzoxazepine-3,5-dione]
IC50 [2]: 12.1 nM

O=C1COc2ccccc2C(=O)N1CCCCN1CCC(c2ccccn2)CC1 [Example 14, 4-(4-(4-(2-pyridyl)-1-piperidinyl)butyl)-2,3,4,5-tetrahydro-1,4-benzoxazepine-3,5-dione]
IC50 [2]: 17.8 nM

O=C1CSc2ccccc2C(=O)N1CCCCN1CCC(c2ccccc2)CC1 [Example 17, 4-(4-(4-phenyl)-1-piperidinyl)butyl-2,3,4,5-tetrahydro-1,4-benzothiazepine-3,5-dione]
IC50 [2]: 4 nM

O=C1CNc2ccccc2C(=O)N1CCCCN1CCC(c2ccccc2)CC1 [Example 18, 4-(4-(4-phenyl)-1-piperidinyl)butyl-2,3,4,5-tetrahydro-1,4-benzodiazepine-3,5-dione]
IC50 [2]: 14.1 nM
inhibition in vivo at 1 mg/kg ([1]; 1 mg/kg intraperitoneal, * 0.05 > P > 0.01): 65%
inhibition in vivo at 10 mg/kg [1]: 90%
Catalepsy ([3]; 10 mg/kg intraperitoneal): - (less than 1)

O=C1CNc2ccccc2C(=O)N1CCCCN1CCC(c2ccc(Cl)cc2)CC1 [Example 19]
IC50 [2]: 16.1 nM
inhibition in vivo at 10 mg/kg [1]: 53%
Catalepsy ([3]; 20 mg/kg intraperitoneal): - (less than 1)

CN1CC(=O)N(CCCCN2CCC(c3ccccc3)CC2)C(=O)c2ccccc21 [Example 21, 1-methyl-4-(4-(4-phenyl) -1-piperidinyl)butyl-2,3,4,5-tetrahydro-1,4-benzodiazepine-3,5-dione]
IC50 [2]: 13.7 nM
Catalepsy ([3]; 30 mg/kg intraperitoneal): - (less than 1)

O=C1CCc2ccccc2C(=O)N1CCCCN1CCC(c2ccccc2)CC1 [Example 22, 2-(4-(4-phenyl)-1-piperidinyl)butyl-1,3,4,5-tetrahydro-2-benzazepine-1,3-dione]
IC50 [2]: 3.74 nM
inhibition in vivo at 10 mg/kg [1]: 52%

O=C1CCc2ccccc2C(=O)N1CCCCN1CCC(c2ccc(Cl)cc2)CC1 [Example 23, 2-(4-(4-(4-chlorophenyl)-1-piperidinyl)butyl)-1,3,4,5-tetrahydro-2-benzazepine-1,3-dione]
IC50 [2]: 6.4 nM

O=C1c2ccccc2OCCN1CCCCCN1CCC(c2ccccc2)CC1 [Example 26, 4-(5-(4-phenyl)-1-piperidinyl)pentyl-2,3,4,5-tetrahydro-1,4-benzoxazepin-5-one]
IC50 [2]: 10.9 nM
inhibition in vivo at 10 mg/kg [1]: 65%
Catalepsy ([3]; 30 mg/kg intraperitoneal): - (less than 1)

O=C1c2ccccc2OCCN1CCCCCN1CCC(c2ccc(Cl)cc2)CC1 [Example 27, 4-(5-(4-(4-chlorochenyl)1-piperidinyl)pentyl)-2,3,4,5-tetrahydro-1,4-benzoxazepin-5-one]
IC50 [2]: 10.6 nM

O=C1COc2ccccc2CN1CCCCCN1CCC(c2ccccc2)CC1 [Example 28, 4-(5-(4-phenyl)-1-piperidinyl)pentyl-2,3,4,5-tetrahydro-1,4-benzoxazepin-3-one]
IC50 [2]: 8.02 nM

O=C1COc2ccccc2CN1CCCCCN1CCC(c2ccc(Cl)cc2)CC1 [Example 29]
IC50 [2]: 10.3 nM
inhibition in vivo at 10 mg/kg [1]: 60%
Catalepsy ([3]; 30 mg/kg intraperitoneal): - (less than 1)

O=C1COc2ccccc2C(=O)N1CCCCCN1CCC(c2ccccc2)CC1 [Example 30, 4-(5-(4-phenyl)-1-piperidinyl)pentyl-2,3,4,5-tetrahydro-1,4-benzoxazepine-3,5-dione]
IC50 [2]: 4.73 nM
inhibition in vivo at 30 mg/kg ([1]; * 0.05 > P > 0.01): 70%
Catalepsy ([3]; 30 mg/kg intraperitoneal): - (less than 1)

O=C1COc2ccccc2C(=O)N1CCCCCN1CCC(c2ccc(Cl)cc2)CC1 [Example 31]
IC50 [2]: 7.82 nM
Catalepsy ([3]; 30 mg/kg intraperitoneal): - (less than 1)

O=C1CSc2ccccc2C(=O)N1CCCCCN1CCC(c2ccccc2)CC1 [Example 32, 4-(5-(4-phenyl)-1-piperidinyl)pentyl-2,3,4,5-tetrahydro-1,4-benzothiazepine-3,5-dione]
IC50 [2]: 3.95 nM

O=C1CSc2ccccc2C(=O)N1CCCCCN1CCC(c2ccc(Cl)cc2)CC1 [Example 33]
IC50 [2]: 17.6 nM

O=C1CCc2ccccc2C(=O)N1CCCCCN1CCC(c2ccccc2)CC1 [Example 36, 2-(5-(4-phenyl)-1-piperidinyl)pentyl-1,3,4,5-tetrahydro-2-benzazepine-1,3-dione]
IC50 [2]: 3.62 nM

O=C1CCc2ccccc2C(=O)N1CCCCCN1CCC(c2ccc(Cl)cc2)CC1 [Example 37, 2-(5-(4-(4-chlorophenyl)-1-piperidinyl)pentyl)-1,3,4,5-tetrahydro-2-benzazepine-1,3-dione]
IC50 [2]: 8.91 nM
inhibition in vivo at 10 mg/kg [1]: 74%
Catalepsy ([3]; 30 mg/kg intraperitoneal): - (less than 1)

O=C(CCCN1CCC(O)(c2ccc(Cl)cc2)CC1)c1ccc(F)cc1 [Haloperidol, reference compound]
Catalepsy ([3]; 0.1 mg/kg intraperitoneal, control): ++ (more than 2 but less than 3)
